Test results as given in patent publication US7531567B2, “Use of a medicament containing an effector of the glutathione metabolism together with α-lipoic acid in kidney replacement therapy” (Serumwerk Bernburg AG, priority 2001, dated 2009).

Tests used:
Type in all cases: cell-based, human
[1] = test system: lymphocytes (peripheral immune cells); assay: intracellular thiol expression of peripheral immune cells (CMFDA flow cytofluorimetry); conditions: for intracellular thiol expression: α-lipoic acid 50 μM, captopril 10 μM, combination at the same concentrations
Method: Peripheral immune cells of healthy donors (n=9) were isolated from the peripheral blood by means of density gradient centrifugation. Lymphocytes having a donor-dependent relative proportion of about 90% in this case normally represent the main fraction of the resulting total population of mononuclear cells. 10% of the mononuclear cells are represented by monocytes. The mononuclear cells obtained were taken up in special cell culture media and incubated in a gas incubator at 37° C., a relative humidity of 98% and 5% relative air-CO2 content. The metabolism of the primarily resting immune cells was activated by means of mitogenic stimulation (0.5 μg/ml of phytohemagglutinin). In order to test the influence of the combinations used according to the invention on the thiol status of thiol-deficient immune cells, these were artificially thiol-depleted. This was carried out by culturing in thiol-deficient media (RPMI 1603) according to tested procedures. Comparison cultures using whole media (RPMI 1640) served for the definition of the best possible normal value under culture conditions. […] Primarily nonfluorogenic CMFDA is in this case passively taken up by the cell. Binding to cytoplasmic thiol groups takes place via the chloromethyl radical. After removal of the acetate radicals by nonspecific cellular esterases, this, now cell membrane-impermeable complex becomes fluorogenic at an excitation wavelength λex=490 nm with an emission wavelength λem=520 nm. The mean fluorescence intensity of the sample (10,000 cells) is directly proportional to the concentration of the intracellular thiol groups. In FIG. 1, the action of the combination of α-lipoic acid and ambroxole (FIG. 1a) and α-lipoic acid and enalapril (FIG. 1b) on the intracellular thiol expression of lymphocytes is shown. […] The data are shown as the ratio of the cellular fluorescence intensity for calibration particles (beads) in each case analyzed in parallel. The active compound concentration of the respective combination is identical to the concentrations of the individual components.

peritoneal macrophages [2] = assay: cellular thiol expression of peritoneal macrophages in kidney replacement therapy; conditions: time kinetics over 14 days (n=12); FIG. 4
Method: Peritoneal macrophages were isolated from the effluate of the peritoneal dialysis of high-grade renally insufficient patients, taken up in cell culture medium and incubated in a gas incubator at 37° C., a relative humidity of 98% and 7.5% relative air-CO2 content. In order to test the influence of the combinations used according to the invention on the thiol status of the peritoneal macrophages, in each case a fraction was treated with α-lipoic acid, the effector of the glutathione metabolism ambroxole or the ACE inhibitor enalapril or with the combination of α-lipoic acid/ambroxole or α-lipoic acid/enalapril, while in each case a further fraction was used as an untreated control. The determination of the cellular thiol status was carried out by means of the measuring method described under 1. The membrane expression of thiols was determined by means of the mean fluorescence intensity (mfi) of the sample (3000 cells/measurement) after coupling to a chloromethylfluorochrome derivative. In FIG. 4, the effect of the combination of α-lipoic acid and ambroxole (FIG. 4a), and α-lipoic acid and enalapril (FIG. 4b) in the time kinetics over 14 days is shown (n=12).

peritoneal macrophages [3] = assay: phagocytic ability of peritoneal macrophages (fluorochrome-labelled bacteria); conditions: treatment period of 6 days
Method: Peritoneal macrophages were isolated analogously to the procedure described under example 3 and cultured ex vivo. The determination of the phagocytic power was carried out by means of a cytofluorometric test at the individual cell level. In this test, the macrophages were cocultured with opsonized and fluorochrome-labelled bacteria. The amount of bacteria taken up in a defined time period was recorded quantitatively by means of the fluorescence intensity in the macrophages and was regarded as a measure of their phagocytic capacity. The influence of the combinations used according to the invention on the phagocytic ability of the peritoneal macrophages after a treatment period of 6 days is presented in Table 3.

peritoneal macrophages [4] = assay: cytokine synthesis of peritoneal macrophages (enzyme immunoassay); conditions: treatment period of 6 days (n=10); α-lipoic acid 50 μM, ambroxole 10 μM, enalapril 5 μM, captopril 10 μM
Method: In parallel to this, in this experimental batch the cell culture supernatants were recovered and the cytokines interleukin-6 (IL-6) and interleukin-1 receptor antagonist (IL-1ra) contained therein, synthesized and secreted by the peritoneal macrophages, were determined.

O=C(O)CCCCC1CCSS1 (stereo not drawn) [α-lipoic acid]
intracellular thiol expression ([1]; culture period 0 d): 2.88 ± 0.20 mfiBeads/Ratio
intracellular thiol expression ([1]; culture period 1 d): 2.81 ± 0.23 mfiBeads/Ratio
intracellular thiol expression ([1]; culture period 2 d): 2.76 ± 0.50 mfiBeads/Ratio
intracellular thiol expression ([1]; culture period 3 d): 2.63 ± 0.60 mfiBeads/Ratio
intracellular thiol expression ([1]; culture period 4 d): 2.41 ± 0.40 mfiBeads/Ratio
intracellular thiol expression ([1]; culture period 6 d): 2.23 ± 0.50 mfiBeads/Ratio
intracellular thiol expression ([1]; culture period 8 d): 2.02 ± 0.30 mfiBeads/Ratio
intracellular thiol expression ([1]; culture period 10 d): 1.89 ± 0.30 mfiBeads/Ratio
intracellular thiol expression ([1]; culture period 12 d): 1.86 ± 0.68 mfiBeads/Ratio
intracellular thiol expression ([1]; culture period 14 d): 1.83 ± 0.60 mfiBeads/Ratio
effect on the intracellular thiol deficit (in words) ([1]; thiol-deficient conditions (1603), FIG. 1): Neither by α-lipoic acid alone nor by the individual application of the effectors was a complete equalization of the thiol deficit possible
effect on the cellular thiol expression of peritoneal macrophages (in words) (peritoneal macrophages [2]): increase in the cellular thiol expression
increase in the phagocytosis rate in relation to the untreated control, factor (peritoneal macrophages [3]): 1.85
Phagocytosis rate (peritoneal macrophages [3]; α-lipoic acid 50 μM, ambroxole 10 μM, enalapril 5 μM, captopril 10 μM): 687 ± 59 mfi/10,000 cells
IL-1ra (peritoneal macrophages [4]): 119.8 ± 19.5 ng/10^6 cells
IL-6 (peritoneal macrophages [4]): 46.9 ± 6.7 ng/10^6 cells
